Measurements taken from paper PMC8347134, “Preparation of Antiproliferative Terpene-Alkaloid Hybrids by Free Radical-Mediated Modification of ent-Kauranic Derivatives” (Molecules, 2021).
Where two headings read alike, the source gives them in different places.

Experiments:
hTERT RPE-1 = assay: Parallel cytotoxicity assay on non-cancerous retina cells; assay type: cell-based
Protocol: (§1) A parallel cytotoxicity assay was performed on non-cancerous retina cells (hTERT RPE-1) in order to estimate the selectivity of the investigated compounds towards tumor cells. The inhibition of cell proliferation was calculated as IC50 by interpolation based on the semi-log dose response.
(§2) All cell lines were cultured as recommended by the suppliers. Culture media were purchased from Gibco Life Technologies, USA, and supplemented with 10% fetal bovine serum (HyClone, GE Healthcare Life Sciences, Logan, UT, USA). […] All stock solutions were prepared in DMSO.
(§3) After overnight incubation, cells were treated with the test compounds at seven different concentrations ranging from 100 to 6.4 × 10^−3 µM. […] The plates were incubated at 37 °C and monitored for 72 h in an IncuCyte® device (Essen BioScience Inc., Ann Arbor, MI, USA) for real-time imaging. Images were taken every 3 h, with one field imaged per well under 10× magnification. Cell growth was then quantified based on the percent cellular confluence as analysed by the IncuCyte® image analysis software and used to calculate IC50 values by linear interpolation. All tests have been performed in duplicate and the average values have been calculated.

[1] = test system: Capan-1 (pancreatic adenocarcinoma); assay: Cell proliferation assay (IncuCyte); assay type: cell-based; conditions: for IC50: Homo sapiens, CAPAN-1, 72 h; for SI Capan-1: ratio IC50 hTERT RPE-1 / IC50 Capan-1
Protocol: as §1, §2, §3

[2] = test system: DND-41 (acute lymphoblastic leukemia); assay: Cell proliferation assay (IncuCyte); assay type: cell-based; conditions: for IC50: DND41, 72 h; for SI DND-41: ratio IC50 hTERT RPE-1 / IC50 DND-41
Protocol: as §1, §2, §3

[3] = test system: HCT-116 (colorectal carcinoma); assay: Cell proliferation assay (IncuCyte); assay type: cell-based; conditions: for IC50: Homo sapiens, HCT-116, 72 h; for SI HCT-116: ratio IC50 hTERT RPE-1 / IC50 HCT-116
Protocol: as §1, §2, §3

[4] = test system: HL-60 (acute myeloid leukemia); assay: Cell proliferation assay (IncuCyte); assay type: cell-based; conditions: for IC50: Homo sapiens, HL-60, 72 h; for SI HL-60: ratio IC50 hTERT RPE-1 / IC50 HL-60
Protocol: as §1, §2, §3

[5] = test system: K-562 (chronic myeloid leukemia); assay: Cell proliferation assay (IncuCyte); assay type: cell-based; conditions: for IC50: Homo sapiens, K562, 72 h; for SI K-562: ratio IC50 hTERT RPE-1 / IC50 K-562
Protocol: as §1, §2, §3

[6] = test system: NCI-H460 (lung carcinoma); assay: Cell proliferation assay (IncuCyte); assay type: cell-based; conditions: for IC50: Homo sapiens, NCI-H460, 72 h; for SI NCI-H460: ratio IC50 hTERT RPE-1 / IC50 NCI-H460
Protocol: as §1, §2, §3

[7] = test system: Z-138 (non-Hodgkin lymphoma); assay: Cell proliferation assay (IncuCyte); assay type: cell-based; conditions: for IC50: Homo sapiens, Z-138, 72 h; for SI Z-138: ratio IC50 hTERT RPE-1 / IC50 Z-138
Protocol: as §1, §2, §3

[8] = test system: seven different tumor cell lines; assay: Proliferation assays, best value over the seven tumor cell lines; assay type: cell-based; conditions: for SImax: highest selectivity index over the tumor cell lines (Figure 4); for IC50 for retina (hTERT RPE-1) cells fold higher than for cancerous cells: highest selectivity indices
Protocol: as §1, §2, §3

NCI-H460 = test system: NCI-H460; design: method as in earlier work; conditions: reference drugs; cited from earlier work
[9] = hTERT-RPE1, 72 h, duplicate, mean ± deviation
[10] = lowest IC50 over the tumor cell lines (Figure 4), read-out: IC50 min

| IC50 ([1]; duplicate, mean ± deviation) | IC50 ([2]; duplicate, mean ± deviation) | IC50 ([3]; duplicate, mean ± deviation) | IC50 ([4]; duplicate, mean ± deviation) | IC50 ([5]; duplicate, mean ± deviation) | IC50 ([6]; duplicate, mean ± deviation) | IC50 ([7]; duplicate, mean ± deviation) | IC50 for retina (hTERT RPE-1) cells fold higher than for cancerous cells [8] | IC50 [8, 10] | SMILES | IC50 (hTERT RPE-1; [9]) | SI NCI-H460 [6] | SI Z-138 [7] | SI Capan-1 [1] | SI HCT-116 [3] | SImax [8] | SI DND-41 [2] | further results |
| --- | --- | --- | --- | --- | --- | --- | --- | --- | --- | --- | --- | --- | --- | --- | --- | --- | --- |
| 37.1 ± 3.9 µM | 36.5 ± 0.7 µM | 30.7 ± 16.4 µM | 19.6 ± 7.7 µM | 24.7 ± 11.8 µM | 12000 ± 1500 nM | 27.6 ± 15.5 µM |  |  | CCOC(=O)CCC1=C[C@@]23CC[C@H]4[C@@](C)(CCC[C@@]4(C)C(=O)OC)[C@@H]2CC[C@@H]1C3 [Compound 7] | 29.2 ± 1.2 µM | 2.4 | 1.1 |  |  |  |  | SI HL-60 [4]: 1.5; SI K-562 [5]: 1.2 |
| 33.2 ± 7.6 µM | 38.9 ± 4.1 µM | 18.8 ± 8 µM | 49.3 ± 5 µM | 76.3 ± 1.4 µM | 41800 ± 5300 nM | 25.2 ± 0.3 µM |  |  | COC(=O)C1(C)CCCC2(C)C1CCC13CC(CCC21)C(CCC(=O)O)(N=[N+]=[N-])C3O (stereo not shown) [Compound 24] | 31.7 ± 3.1 µM |  | 1.3 |  | 1.7 |  |  |  |
| 8.3 ± 1.1 µM | 6.6 ± 1.3 µM | 9.9 ± 2.7 µM | 41.1 ± 15.9 µM | 36.9 ± 0.2 µM | 600 ± 200 nM | 21.6 ± 5.4 µM | up to 43 fold | 600 ± 200 nM | COC(=O)CCC1(N=[N+]=[N-])C2CCC3C4(C)CCCC(C)(C(=O)OC)C4CCC3(C2)C1O (stereo not shown) [Compound 26] | 25.9 ± 0.3 µM | 43.2 | 1.2 | 3.1 | 2.6 | 43.2 | 3.9 |  |
| 44.5 ± 8.3 µM | 44.5 ± 4.8 µM | 5.8 ± 0.1 µM | 46.2 ± 9.1 µM | 41 µM | 31100 ± 1600 nM | 22.7 µM |  |  | COC(=O)[C@]1(C)CCC[C@@]2(C)[C@@H]3CC[C@@H]4C[C@@]3(CC[C@@H]21)C[C@@]4(CCC(=O)O)N=[N+]=[N-] [Compound 14] | 26.2 ± 0.9 µM |  | 1.2 |  | 4.5 |  |  |  |
| 6.4 ± 1.5 µM | 36.4 ± 9.8 µM | 34.4 ± 0.5 µM | > 100 µM | > 100 µM | 34000 ± 2900 nM | 52 ± 17.4 µM |  | 6400 ± 1500 nM | CC1(C(=O)O)CCCC2(C)C1CCC13CC(CCC21)C(CCC#N)(N=[N+]=[N-])C3O (stereo not shown) [Compound 25] | 33.6 ± 4.5 µM |  |  | 5.3 |  | 5.3 |  |  |
| 1.7 ± 0.5 µM | 1.4 ± 0.3 µM | 1 ± 0.4 µM | 3 ± 1.4 µM | 8.8 ± 2.2 µM | 1300 ± 100 nM | 0.5 ± 0.2 µM | up to 43 fold | 500 ± 200 nM | CCOC(=O)CC[C@@]1(N=[N+]=[N-])C[C@@]23CC[C@H]4[C@@](C)(CCC[C@@]4(C)C(=O)OC)[C@@H]2CC[C@@H]1C3 [Compound 11] | 1.8 ± 0.4 µM | 1.4 | 3.6 | 1.1 | 1.8 | 3.6 | 1.3 |  |

Continued, compound first:

| SMILES | IC50 ([1]; duplicate, mean ± deviation) | IC50 ([2]; duplicate, mean ± deviation) | IC50 ([3]; duplicate, mean ± deviation) | IC50 ([4]; duplicate, mean ± deviation) | IC50 ([5]; duplicate, mean ± deviation) | IC50 ([6]; duplicate, mean ± deviation) | IC50 ([7]; duplicate, mean ± deviation) | IC50 for retina (hTERT RPE-1) cells fold higher than for cancerous cells [8] | IC50 [8, 10] | IC50 (hTERT RPE-1; [9]) | SI NCI-H460 [6] | SI Z-138 [7] | SI Capan-1 [1] | SI HCT-116 [3] | SImax [8] | SI DND-41 [2] | further results |
| --- | --- | --- | --- | --- | --- | --- | --- | --- | --- | --- | --- | --- | --- | --- | --- | --- | --- |
| COC(=O)C1(C)CCCC2(C)C3CCC4CC3(CCC12)CC41CCC(=O)N1 (stereo not shown) [Compound 12] | 1.2 ± 0.7 µM | 21.4 ± 10.1 µM | 0.8 ± 0.2 µM | 38.3 ± 17.8 µM | 36.4 ± 11.5 µM | 1400 ± 100 nM | 52 ± 33.4 µM | up to 43 fold | 800 ± 200 nM | 7.6 ± 0.5 µM | 5.4 |  | 6.3 | 9.5 | 9.5 |  |  |
| COC(=O)C1(C)CCCC2(C)C3CCC4CC3(CCC12)CC41CCCN1 (stereo not shown) [Compound 13] | 11.5 ± 1 µM | 6.1 ± 1.1 µM | 11.6 ± 0.5 µM | 8.3 ± 1.3 µM | 3.2 ± 1 µM | 1000 ± 100 nM | 9.5 ± 0.9 µM | up to 43 fold | 1000 ± 100 nM | 32.2 ± 2 µM | 32.2 | 3.4 | 2.8 | 2.8 | 32.2 | 5.3 | SI HL-60 [4]: 3.9; SI K-562 [5]: 10.1 |
| CN[C@@H]1C[C@H]2O[C@@](C)([C@@H]1OC)n1c3ccccc3c3c4c(c5c6ccccc6n2c5c31)C(=O)NC4 [SP, staurosporine, reference compound] |  |  |  |  |  |  |  |  |  |  |  |  |  |  |  |  | IC50 ([2]; positive controls): 0.0086 ± 0.0015 µM; IC50 ([4]; positive controls): 0.0091 ± 0.0016 µM; IC50 ([5]; positive controls): 0.0279 ± 0.0032 µM; IC50 ([6]; positive controls): 2.2 ± 0.8 nM |
| COC(=O)C1(C)CCCC2(C)C1CCC13CC(CCC21)C1(CCC(=O)N1)C3O (stereo not shown) [Compound 27] | 3.7 ± 1.7 µM | 8.3 ± 2 µM | 4 ± 3.7 µM | 38 ± 11.8 µM | 56.5 ± 2.8 µM | 1900 ± 200 nM | 39.8 ± 10.9 µM | up to 43 fold | 1900 ± 200 nM | 27.7 ± 4.3 µM | 14.6 |  | 7.5 | 6.9 | 14.6 | 3.3 |  |
| COC(=O)C1(C)CCCC2(C)C3CCC4CC3(C=C4CCC#N)CCC12 (stereo not shown) [Compound 16] | 18.1 ± 3.4 µM | 7.8 ± 1 µM | 19 ± 5.7 µM | 33.6 ± 2.6 µM | 58.4 ± 2.5 µM | 15400 ± 6000 nM | 22.1 ± 11.4 µM |  | 7800 ± 1000 nM | 38.2 ± 5.1 µM | 2.5 | 1.7 | 2.1 | 2.0 | 4.9 | 4.9 | SI HL-60 [4]: 1.1 |
| COC(=O)[C@]1(C)CCC[C@@]2(C)[C@@H]3CC[C@@H]4C[C@@]3(CC[C@@H]21)[C@H]1OC(=O)CC=C41 [Compound 22] | 1.3 ± 0.6 µM | 2.3 ± 0.3 µM | 0.5 ± 0.2 µM | 3.7 ± 1.3 µM | 2.5 ± 0.1 µM | 1400 ± 300 nM | 2.4 ± 1.1 µM |  |  | 1.4 ± 0.1 µM | 1 |  | 1.1 | 2.8 |  |  | IC50 ([8]; tumor cell lines, read-out: IC50 values): < 1000 nM |
| N.N.[Cl][Pt][Cl] [Cisplatin] |  |  |  |  |  |  |  |  |  |  |  |  |  |  |  |  | IC50 (NCI-H460): 5.33 µM |
| CC(=O)O[C@@]12CO[C@@H]1C[C@H](O)[C@@]1(C)C(=O)[C@H](O)C3=C(C)[C@@H](OC(=O)[C@H](O)[C@@H](NC(=O)OC(C)(C)C)c4ccccc4)C[C@@](O)([C@@H](OC(=O)c4ccccc4)[C@H]21)C3(C)C [DT, docetaxel, reference compound] |  |  |  |  |  |  |  |  |  |  |  |  |  |  |  |  | IC50 (hTERT RPE-1; hTERT-RPE1, positive controls, 72 h): 0.0187 ± 0.0048 µM; IC50 ([1]; positive controls): 0.0042 ± 0.0018 µM; IC50 ([2]; positive controls): 0.0047 ± 0.0012 µM; IC50 ([3]; positive controls): 0.0022 ± 0.0008 µM; IC50 ([4]; positive controls): 0.0043 ± 0.0016 µM; IC50 ([5]; positive controls): 0.0052 ± 0.0012 µM; IC50 ([6]; positive controls): 5.5 ± 1.3 nM; IC50 ([7]; positive controls): 0.0037 ± 0.0007 µM |
